Read-outs that look alike come from different tables or passages of the source.
Columns and labels:
[1] = system: HCV genotype 1a (H77 strain) replicon in HUH-7 cells; assay: HCV replicon luciferase reporter assay, genotype 1a; type: cell-based; conditions: Hepatitis C virus, Huh-7, 72 h, 3 days incubation, read-out: LE_1a (EC50, range)
From the text: (§1) Generation of HCV Replicon
(§2) An HCV replicon whole cell system was established as described by Lohmann V, Korner F, Koch J, Herian U, Theilmann L, Bartenschlager R., Science 285(5424):110-3 (1999) and modified to introduce a luciferase reporter, as first described by Krieger et al (Krieger N, Lohmann V, and Bartenschlager R, J. Virol. 75(10):4614-4624 (2001)). CDNA encoding a humanized form of the Renilla luciferase gene and a linker sequence fused directly to the 3′-end of the luciferase gene were introduced into the replicon construct using an Asc1 restriction site located in core, directly upstream of the neomycin marker gene. The adaptive mutation at position 1179 (serine to isoleucine) was also introduced (Blight K J, Kolykhalov, A A, Rice, C M, Science 290(5498):1972-1974). A stable cell line constitutively expressing this HCV replicon construct was generated by first linearizing plasmid DNAs with ScaI. RNA transcripts were synthesized in vitro using the T7 MegaScript transcription kit (Ambion, Austin, Tex.) according to manufacturer's directions. In vitro transcripts of the cDNA were transfected into the human hepatoma cell line, HUH-7. […] Resulting cell lines were characterized for positive and negative strand RNA production and protein production over time.
A stable HCV replicon luciferase reporter cell line representing the genotype 1a H77 strain (Yanagi M, Purcell R H, Emerson S U, et al. Transcripts from a single full-length cDNA clone of hepatitis C virus are infectious when directly transfected into the liver of a chimpanzee. Proc Natl Acad Sci USA 1997; 94(16):8738-8743) was generated as described previously for the genotype 1b(Con1) replicon luciferase cell line. The replicon construct was modified by introducing mutations were introduced into the genes encoding the NS3 helicase domain (proline replaced by leucine at position 1496) and NSSA (serine to isoleucine at position 2204) to improve replication in cell culture.
(§3) HCV Replicon Luciferase Reporter Assay
(§4) HCV replicon luciferase assays were developed to monitor the inhibitory effects of compounds described in the disclosure on HCV genotypes 1a and 1b viral replication. HUH-7 cells, constitutively expressing the HCV replicon, were grown in Dulbecco's Modified Eagle Media (DMEM) (Gibco-BRL) containing 10% Fetal calf serum (FCS) (Sigma) and 1 mg/mL G418 (Gibco-BRL). Compounds were serially diluted 3 folds in DMSO for a twenty-point titration and subsequently transferred to sterile 384-well tissue-culture treated plates (Corning cat #3571). The plates were then seeded with 50 μL of cells at a density of 3.0×10^3 cells/well in DMEM containing 4% FCS (final DMSO concentration at 0.5%). After 3 days incubation at 37° C., cells were analyzed for Renilla Luciferase activity using the EnduRen as substrate (Promega cat #E6485). The EnduRen substrate was diluted in DMEM and then added to the plates to a final concentration of 7.5 μM. The plates were incubated for 2 hrs at 37° C. and then read immediately for 30 seconds with Viewlux Imager (PerkinElmer) using a luminescence program. To assess cytotoxicity of compounds, CC50 values were generated by multiplexing the EnduRen-containing plates with Cell Titer-Blue (Promega, cat # G8082). Cell-Titer Blue (3 μL) was added to each well and incubated for 8 hrs at 37° C. The fluorescence signal from each well was read, with an excitation wavelength at 525/10 nm and an emission wavelength of 598/10 nm, using the Viewlux Imager.
(§5) The EC50 values for compounds were calculated by using a four-parameter logistic equation: y=A+((B−A)/(1+((C/x)^D))), where A and B denotes minimal and maximal % inhibition, respectively, C is the EC50, D is the hill slope and x represents compound concentration.

[2] = system: HCV genotype 1b (Con1) replicon in HUH-7 cells; assay: HCV replicon luciferase reporter assay, genotype 1b; type: cell-based; conditions: Hepatitis C virus, Huh-7, 72 h, 3 days incubation, read-out: LE_1b (EC50, range)
From the text: as §1
as §2, with “time. […]” for “time.”
as §3, §4, §5

[3] = HCV genotype 1a replicon luciferase
[4] = HCV genotype 1b replicon luciferase
[5] = HCV genotype 1a replicon luciferase assay, range class
[6] = HCV genotype 1b replicon luciferase assay, range class
[7] = GETYPE1A, HCV genotype 1a replicon luciferase
[8] = GETYPE1B, HCV genotype 1b replicon luciferase

Compound: CCOc1cc2ccnc(O[C@@H]3C[C@H]4C(=O)N[C@]5(C(=O)NS(=O)(=O)C6(CF)CC6)C[C@H]5/C=C\CC[C@@H](C)C[C@@H](C)[C@H](NC(=O)OC(C)(C)C(F)(F)F)C(=O)N4C3)c2cc1F [Compound 5413, 1,1,1-trifluoro-2-methylpropan-2-yl((2R,6S,7R,9R,13aS,14aR,16aS,Z)-2-((6-ethoxy-7-fluoroisoquinolin-1-yl)oxy)-14a-(((1-(fluoromethyl)cyclopropyl)sulfonyl)carbamoyl)-7,9-dimethyl-5,16-dioxo-1,2,3,5,6,7,8,9,10,11,13a,14,14a,15,16,16a-hexadecahydrocyclopropa[e]pyrrolo[1,2-a][1,4]diazacyclopentadecin-6-yl)carbamate]
- EC50 [1, 3]: 1.01 to 5 nM
- EC50 [2, 4]: 0.51 to 1 nM

Compound: COc1ccc2c(O[C@@H]3C[C@H]4C(=O)N[C@]5(C(=O)NS(=O)(=O)C6(C)CC6)C[C@H]5/C=C\CC[C@@H](C)C[C@@H](C)[C@H](NC(=O)OC(C)(C)C)C(=O)N4C3)nc(N(C)C)nc2c1 [Compound 3002, tert-butyl ((2R,6S,7R,9R,13aS,14aR,16aS,Z)-2-((2-(dimethylamino)-7-methoxyquinazolin-4-yl)oxy)-7,9-dimethyl-14a-(((1-methylcyclopropyl)sulfonyl)carbamoyl)-5,16-dioxo-1,2,3,5,6,7,8,9,10,11,13a,14,14a,15,16,16a-hexadecahydrocyclopropa[e]pyrrolo[1,2-a][1,4]diazacyclopentadecin-6-yl)carbamate]
- EC50 [1, 5]: < 5.46 nM
- EC50 [2, 6]: < 5.46 nM

Compound: [2H]C([2H])([2H])Oc1cnc(O[C@@H]2C[C@H]3C(=O)N[C@]4(C(=O)NS(=O)(=O)C5(C)CC5)C[C@H]4/C=C\CC[C@H](C)C[C@@H](C)[C@H](NC(=O)OC(C)(C)C(F)(F)F)C(=O)N3C2)c2ccccc12 [Compound 5102, 1,1,1-trifluoro-2-methylpropan-2-yl((2R,6S,7R,9S,13aS,14aR,16aS,Z)-7,9-dimethyl-14a-(((1-methylcyclopropyl)sulfonyl)carbamoyl)-5,16-dioxo-2-((4-(trideuteromethoxy)isoquinolin-1-yl)oxy)-1,2,3,5,6,7,8,9,10,11,13a,14,14a,15,16,16a-hexadecahydrocyclopropa[e]pyrrolo[1,2-a][1,4]diazacyclopentadecin-6-yl)carbamate]
- EC50 [1, 3]: < 5.46 nM
- EC50 [2, 4]: < 5.46 nM

Compound: COc1cnc(O[C@@H]2C[C@H]3C(=O)N[C@]4(C(=O)NS(=O)(=O)C5(CF)CC5)C[C@H]4/C=C\CC[C@H](C)C[C@@H](C)[C@H](NC(=O)OC(C)(C)CC(F)(F)F)C(=O)N3C2)c2ccccc12 [Compound 1061, 4,4,4-trifluoro-2-methylbutan-2-yl((2R,6S,7R,9S,13aS,14aR,16aS,Z)-14a-(((1-(fluoromethyl)cyclopropyl)sulfonyl)carbamoyl)-2-((4-methoxyisoquinolin-1-yl)oxy)-7,9-dimethyl-5,16-dioxo-1,2,3,5,6,7,8,9,10,11,13a,14,14a,15,16,16a-hexadecahydrocyclopropa[e]pyrrolo[1,2-a][1,4]diazacyclopentadecin-6-yl)carbamate]
- EC50 [1, 5]: 4.82 to 103 nM
- EC50 [2, 6]: 4.82 to 103 nM

Compound: COc1cc2ccnc(O[C@@H]3C[C@H]4C(=O)N[C@]5(C(=O)NS(=O)(=O)C6(C(F)F)CC6)C[C@H]5/C=C\CC[C@@H](C)C[C@@H](C)[C@H](NC(=O)OC(C)(C)C(F)(F)F)C(=O)N4C3)c2cc1F [Compound 4093]
- EC50 [1, 7]: < 5.46 nM
- EC50 [2, 8]: < 5.46 nM

Compound: CC(C)Oc1ccc2c(O[C@@H]3C[C@H]4C(=O)N[C@]5(C(=O)NS(=O)(=O)C6(C)CC6)C[C@H]5/C=C\CC[C@H](C)C[C@@H](C)[C@H](NC(=O)OC(C)(C)C)C(=O)N4C3)nccc2c1 [Compound 5156, tert-butyl ((2R,6S,7R,9S,13aS,14aR,16aS,Z)-2-((6-isopropoxyisoquinolin-1-yl)oxy)-7,9-dimethyl-14a-(((1-methylcyclopropyl)sulfonyl)carbamoyl)-5,16-dioxo-1,2,3,5,6,7,8,9,10,11,13a,14,14a,15,16,16a-hexadecahydrocyclopropa[e]pyrrolo[1,2-a][1,4]diazacyclopentadecin-6-yl)carbamate]
- EC50 [1, 3]: 4.82 to 103 nM
- EC50 [2, 4]: 4.82 to 103 nM

Compound: CC[C@@H]1C[C@H](C)CC/C=C\[C@@H]2C[C@@]2(C(=O)NS(=O)(=O)C2(C)CC2)NC(=O)[C@@H]2C[C@@H](Oc3cc(OC)nc4cc(OC)c(F)cc34)CN2C(=O)[C@H]1NC(=O)OC(C)(C)C(F)(F)F [Compound 1199]
- EC50 [1, 7]: 1.01 to 5 nM
- EC50 [2, 8]: 1.01 to 5 nM

Compound: CC[C@@H]1C[C@H](C)CC/C=C\[C@@H]2C[C@@]2(C(=O)NS(=O)(=O)C2(C)CC2)NC(=O)[C@@H]2C[C@@H](Oc3ncc(OC)c4cc(N(C)C)ccc34)CN2C(=O)[C@H]1NC(=O)OC(C)(C)C [Compound 3206, tert-butyl ((2R,6S,7R,9R,13aS,14aR,16aS,Z)-2-((6-(dimethylamino)-4-methoxyisoquinolin-1-yl)oxy)-7-ethyl-9-methyl-14a-(((1-methylcyclopropyl)sulfonyl)carbamoyl)-5,16-dioxo-1,2,3,5,6,7,8,9,10,11,13a,14,14a,15,16,16a-hexadecahydrocyclopropa[e]pyrrolo[1,2-a][1,4]diazacyclopentadecin-6-yl)carbamate]
- EC50 [1, 3]: 1.01 to 5 nM
- EC50 [2, 4]: 1.01 to 5 nM

Compound: CC[C@@H]1C[C@H](C)CC/C=C\[C@@H]2C[C@@]2(C(=O)NS(=O)(=O)C2(C)CC2)NC(=O)[C@@H]2C[C@@H](Oc3ncc(OC)c4cc(OC)c(F)cc34)CN2C(=O)[C@H]1NC(=O)OC(C)(C)C(F)(F)F [Compound 4236]
- EC50 [1, 7]: < 5.46 nM
- EC50 [2, 8]: < 5.46 nM

Compound: COc1ccc2c(O[C@@H]3C[C@H]4C(=O)N[C@]5(C(=O)NS(=O)(=O)C6(C)CC6)C[C@H]5/C=C\CC[C@@H](C)C[C@@H](C)[C@H](NC(=O)OC(C)(C)C(C)(F)F)C(=O)N4C3)nc3c(c2c1)CCCO3 [Compound 6082, 3,3-difluoro-2-methylbutan-2-yl((2R,6S,7R,9R,13aS,14aR,16aS,Z)-2-((9-methoxy-2,3-dihydro-1H-pyrano[2,3-c]isoquinolin-6-yl)oxy)-7,9-dimethyl-14a-(((1-methylcyclopropyl)sulfonyl)carbamoyl)-5,16-dioxo-1,2,3,5,6,7,8,9,10,11,13a,14,14a,15,16,16a-hexadecahydrocyclopropa[e]pyrrolo[1,2-a][1,4]diazacyclopentadecin-6-yl)carbamate]
- EC50 [1, 3]: 0.51 to 1 nM
- EC50 [2, 4]: 1.01 to 5 nM
